“Also recorded” adds a separate entry of the source.
Columns and labels:
[1] = tested on: c-fos mRNA; test: Hepatic c-fos mRNA expression after 2/3 PHX (northern blot); type: in vivo, rat
Protocol: Animals were divided into four groups: sham procedures, PHX, PHX+L-NAME (Sigma), a Nos antagonist, and PHX+L-NAME+3morpholinosydnonimine (SIN-1, Alexis Corp.), a NO donor. Animals were anesthetized by sodium pentobarbital (6.5 mg/100 g. i.p; MTC Pharmaceuticals). Anesthesia was maintained using a continuous i.v. infusion (Harvard infusion pump, model 2720) of sodium pentobarbital (1.08 mg/ml saline, 1.0 ml/100 g/hr) via a cannula inserted into the femoral vein (PE50), Intramedic Clay Adams Brand, Becton-Dickinson). All surgical procedures were performed between the 10:00 am and 2:00 pm. Arterial blood pressure was monitored via a cannula (PE50, Intramedic Clay Adams Brand, Becton-Dickson) inserted into the femoral artery. To facilitate breathing a tracheotomy was performed using a polyethylene tube (PE240, Intramedic Clay Adams Brand, Becton-Dickinson) inserted into the trachea. Body temperature was maintained at 37.5±0.5° C. by the use of a rectal thermometer (Hanna Instruments) and a heated surgical table (Harvard Apparatus). Laparotomy was performed and a 24 G cather (Optiva™, Johnson and Johnson Medical Inc.) was inserted into the portal vein. The rat was then allowed to stabilize for 30 minutes.
A 0.5 ml bolus of L-NAME (5.0 mg/kg), or saline was infused intravenously over two minutes. Ten minutes later, PHX (resection of the left lateral and median lobes as described by Higgins and Anderson (20) or gentle manipulation of the liver lobes was performed. Resected lobes were litigated using black braided surgical silk (size 0, Ethicon) and excised. […] Fifteen minutes after PHX, or sham manipulation, the remaining liver was removed, slashed and blotted to remove blood, and immediately frozen on dry ice. Portal venous pressure (PVP) was measured, using an R-611 SensorMedics Dynograph Recorder, immediately before and after PHX.
For additional experiments involving PHX+L-NAME, the surgical procedure was exactly the same at that for the ⅔ PHX described above, except that the remaining liver as removed at 30, 45 or 60 minutes after PHX.
Total RNA was isolated by a method modified from Chirgwin et al. (23). Liver tissue was homogenized (Brinkman, Polytron) in lithium chloride/urea (3M/6M; Sima). The homogenized was centrifuged at 25000 rpm (Brinkman L8-70M Ultracentrifuge) for 20 minutes at 4° C. […] The concentration of the RNA was then determined using a spectrophotometer (Ultrospec2000, Pharamacia Biotech). […] The membranes were prehybridized at 42° C. for 3 hours in prehybridization buffer consisting of 5×SSC, 7% SDS (Sigma), sheared denatured salmon sperm DNA (100 μg/ml, Gibco BRL) and 5×Denhardt's solution (Sigma). c-fos mRNA was detected using a 2.1 kb cDNA probe (kindly provided by Dr. C Steer, university of Minnesota, Minneapolis, Minn.). […]

[2] = tested on: proliferative factors (PF) in the plasma of PHX rats; test: Hepatocyte primary culture bioassay for proliferative factor (PF) production in plasma after 2/3 PHX; type: in vivo, rat; conditions: for reversal of L-NAME-induced blockade/inhibition: PHX rats given L-NAME plus L-arginine, in vivo
Protocol: The production of proliferative factors (PFs) was determined as previously described (21) . Briefly, PHX or PVL was performed as described above. Four hours after PHX or PVL, the diaphragm was cut and a blood sample drawn ([…] per rat) from the right ventricle of the heart using a 21 G 1.5-inch needle and a 10 ml sterile syringe. In a tissue culture hood, the blood was transferred to a sterile centrifuge tube, centrifuged at 2500 g for 20 minutes, and plasma stored at −20° C. The collagenase perfusion and hepatocyte isolation method was modified from Seglen (22), and has been previously described (21). Male Sprahue-Dawley rats (250 g) were anesthetized using sodium pentobarbital (6.5 mg/100 g, i.p.) and livers were perfused according to Seglen (22). Isolated cells were seeded (1×10^5 cells/ml, 2 ml per well) in six-well culture plates and allowed to attach to the plate overnight at 37° C. The next day, unattached cells were washed out of the wells and the starting viable cell number was counted from three randomly selected wells. Trypsin-EDTA (Gibco, BRL) was used to isolate attached hepatocytes from the plate and the hepatocytes were counted using a hemocytometer (Fisher Scientific). Fresh medium and plasma samples from PHX rats (10% final concentration) were added to the rest of the wells (three wells per sample). The medium, containing plasma, was changed at 24 hours. The attached viable cells were harvested at 48 hours. and the final count of viable hepatocytes was determined. The PF levels were expressed as net cell proliferation (viable cell count per well at 48 hours minus starting cell count per well).
The experiment was aimed to develop and optimize a hepatocyte primary culture bioassay to detect proliferative factors (PF) in the plasma or serum of partial hepatectomized (PHX) rats, which could serve as an index of the initiation of liver regeneration cascade.
The bioassay detects the presence of PF by measuring hepatocyte proliferation through a directly counting cell number increases over the culture period using a hemacytometer. The procedure of liver perfusion and hepatocyte purification was adopted from Seglen (1976 Methods Cell Biol. 13, 29) using Sprague Dawley rats. The purified hepatocytes ([…]) were seeded into 6-well culture plates and allowed to attach to the plate overnight at 37° C. The unattached cells were then washed out and the starting cell count was determined from 3 randomly picked wells in the culture after trypsin digestion. Sera collected from ⅔ PHX rats at 1-6 hours post PHX was added to the culture. With a medium change at 24 hours, the final cell counting was performed at 48 hours. The net cell proliferation was expressed as the difference between the counts at 48 hours and starting at hour (0 hr).
The optimized assay conditions ([…] plating concentration, 10% serum, 48 hr culture) were able to detect an increase of PF in PHX rat serum between 1-4 hours after PHX, with a peak activity at 4 hours (unpooled serum n=5/time point, pooled n=5/point). The assay has a high sensitivity to detect PF in ⅓ PHX rat serum (n=7), which was not detectable using the conventional DNA synthesis method.
(§1) To test the hypotheses, an […] hepatocyte primary culture bioassay was developed to detect PF in the plasma of PHX rats as an index of the initial trigger. The PHX surgery was performed according to the conventional method. Liver weight was also measured from the post PHX recovered rats to directly assess liver regeneration in vivo. The level of flow-dependent factors (e.g. adenosine (Ado), NO) was pharmacologically manipulated to test their roles in triggering the liver regeneration cascade.

[3] = tested on: proliferative factor (PF) activity in blood after PVL; test: Hepatocyte bioassay for PF activity in blood after selective portal vein branch ligation (PVL); type: in vivo, rat
Excerpt: Rats were divided into four groups: sham PVL, PVL, PVL+L-NAME and PVL+L-NAME+SIN-1. Surgical procedures were the same as described for PHX except that liver lobes were not ligated and […]. Rather, the left branch of the portal vein was carefully isolated and […]. The left branch of the portal vein was carefully isolated from the surrounding hepatic artery, hepatic nerves, bile duct and lymphatics. A thread was slipped around the left branch of the portal vein and the animal was allowed to recover for one hour. Following the recovery period, saline or L-NAME was administered as described for the PHX group, and the PVL+L-NAME+SIN-1 group received SIN-1 as indicated above. […] PVP was measured immediately before and after PVL, as described for PHX surgery.
The production of proliferative factors (PFs) was determined as previously described (21) . […] The next day, unattached cells were washed out of the wells and the starting viable cell number was counted from three randomly selected wells. Trypsin-EDTA (Gibco, BRL) was used to isolate attached hepatocytes from the plate and the hepatocytes were counted using a hemocytometer (Fisher Scientific). […] The attached viable cells were harvested at 48 hours. and the final count of viable hepatocytes was determined. The PF levels were expressed as net cell proliferation (viable cell count per well at 48 hours minus starting cell count per well).

[4] = tested on: two-thirds PHX rats; test: Restoration of liver weight and survival after two-thirds PHX; type: in vivo, rat; conditions: for post surgery survival rate: 36-44 hours
Protocol: The extent of liver regeneration can be assessed from a number of parameters, the most direct being the restoration of liver weight following PHX. […] Unfortunately, the liver regeneration studies are made complex by the well known observation that NO synthase blockade can potentiate the toxic reaction to inflammatory conditions. […] This can have been a factor in these studies where 6 of 14 rats died in the high dose group between 36 and 44 hours. These animals had only 18±4.7% regeneration. The ability to inhibit regeneration is compatible with a triggering role for NO.
as §1

[5] = tested on: cultured hepatocytes; test: Cultured hepatocytes exposed to L-NAME in vitro; type: cell-based, rat; conditions: L-NAME at concentrations estimated to occur in the in vivo experiments
Excerpt: To determine whether NO served as a trigger to initiate a further cascade of events or whether it served as a direct proliferating stimulus on hepatocytes, the cultured hepatocytes were exposed to concentrations of L-NAME estimated to occur in the in vivo experiments.

## CC(=O)NC(C(=O)O)C(C)(C)SN=O (racemic) [SNAP, S-nitroso-N-acetyl-D,L-penacillamine]
[1]; after PHX, SNAP 5 mg/kg
  c-fos mRNA expression: potentiates
[1]; sham operated livers, SNAP 5 mg/kg
  c-fos mRNA expression: no effect

## Nc1ncnc2c1ncn2[C@@H]1O[C@H](CO)[C@@H](O)[C@H]1O [Ado, adenosine]
[2]; 2/3 PHX rats, adenosine level manipulated
  effect on PF generation: no significant effects

## COC(=O)[C@@H](N)CCCNC(=N)N[N+](=O)[O-] [L-NAME, N-nitro-Larginine methyl ester]
[2]; two-thirds PHX rats, L-NAME i.v. at early time points after PHX, 4 hours peak PF
  appearance/generation of PF in the plasma: block 4 hours peak PF generation; also recorded: blocked the appearance of PF in the plasma; also recorded: inhibited
[2]; two-thirds PHX rats, i.v., not further inhibited by 5.0 mg/kg
  dose giving maximum inhibition of PF appearance: 2.5 mg/kg
[3]; four hours after, L-NAME
  PF activity in blood: inhibited
[4]; L-NAME + PHX group (n=14), PHX control 100%
  post surgery survival rate: about 50%
[4]; L-NAME-no-PHX control group (n=6)
  post surgery survival rate: 100%
[4]; 48 hours post-PHX, low dose of L-NAME
  restoration of liver weight (regeneration): did not significantly inhibit regeneration
[4]; high dose L-NAME group after PHX, between 36 and 44 hours
  rats that died: 6 of 14
[4]; high dose L-NAME group, rats that died between 36 and 44 hours
  regeneration in animals that died: 18±4.7%
[1]; L-NAME 5.0 mg/kg i.v. prior to PHX
  c-fos mRNA expression at 30, 45 and 60 minutes compared to 15 minutes after PHX: no difference in c-fos mRNA expression
[5]
  direct effect on hepatocyte proliferation in vitro: positive proliferative stimulus

## N=C(N)NCCC[C@H](N)C(=O)O [L-arginine]
[2]
  reversal of L-NAME-induced blockade/inhibition: reversed the L-NAME inhibitory effect
[2]; listed as L-Arginine
  reversal of L-NAME-induced blockade/inhibition: significantly reversed the inhibition by L-NAME

## N=c1c[n+](N2CCOCC2)[n-]o1 [SIN-1, 3-morpholinosydnonimine]
[2]; PHX, PF activity in blood four hours after
  reversal of L-NAME inhibition of PF activity: reversed the inhibition
[3]; PF activity in blood four hours after
  reversal of L-NAME inhibition of PF activity: reversed the inhibition

## CCCOc1ccccc1-c1nc2nn[nH]c2c(=O)[nH]1 [Zaprinast]
[1]; after ⅔ PHX, Zaprinast 10 and 30 mg/kg
  c-fos mRNA expression: potentiated
